Measurements as given in patent US11793824B2, “Administration of nicotinamide mononucleotide in the treatment of disease” (Washington University, priority 2013, dated 2023).

Assay: Fundus biomicroscopy of aged mice
Assay type: in vivo, mouse
Conditions: 18 months of age
Method: A 12 month-long NMN administration study using wild-type mice under a regular chow-fed condition was conducted. NMN was administered through drinking water, and two doses of NMN, 100 and 300 mg/kg body weight/day, were tested. […] To assess beneficial and possible adverse effects of NMN, a variety of physiological parameters were periodically monitored, including body weight, body temperature, food and water intake, fed and fasted blood glucose levels, fed and fasted plasma lipid panels, and glucose and insulin tolerance, in NMN-administered and control mice. Blood chemistry, blood cell counts, urine strip test, and other physiological tests including physical activity test were also checked.
In the long-term NMN administration study (See Methods; Administration of NMN through Drinking Water and Determination of NMN Stability and Toxicity), retinal function was evaluated by fundus biomicroscopy and electroretinography (ERG). FIG. 11 illustrates fundus biomicroscopy images from control and NMN-administered mice. For each group, five mice were examined, and two representative images are shown.

NC(=O)c1ccc[n+]([C@@H]2O[C@H](COP(=O)([O-])O)[C@@H](O)[C@H]2O)c1 [NMN, nicotinamide mononucleotide]
mice with dramatic reductions in intraretinal whitish deposits (100 mg/kg): two
mice with dramatic reductions in intraretinal whitish deposits (300 mg/kg): four
